Patent US8361998B2, “Compounds and their use as IKACh blockers” (AstraZeneca AB, priority 2010, dated 2013)

Biological target: T1, human cardiac ion channel proteins hKir3.1/Kir3.4 (Homo sapiens, UniProt P48544+P48549)
T1 construct: expressed in transfected cells
T1 sequence (P48549 1-501): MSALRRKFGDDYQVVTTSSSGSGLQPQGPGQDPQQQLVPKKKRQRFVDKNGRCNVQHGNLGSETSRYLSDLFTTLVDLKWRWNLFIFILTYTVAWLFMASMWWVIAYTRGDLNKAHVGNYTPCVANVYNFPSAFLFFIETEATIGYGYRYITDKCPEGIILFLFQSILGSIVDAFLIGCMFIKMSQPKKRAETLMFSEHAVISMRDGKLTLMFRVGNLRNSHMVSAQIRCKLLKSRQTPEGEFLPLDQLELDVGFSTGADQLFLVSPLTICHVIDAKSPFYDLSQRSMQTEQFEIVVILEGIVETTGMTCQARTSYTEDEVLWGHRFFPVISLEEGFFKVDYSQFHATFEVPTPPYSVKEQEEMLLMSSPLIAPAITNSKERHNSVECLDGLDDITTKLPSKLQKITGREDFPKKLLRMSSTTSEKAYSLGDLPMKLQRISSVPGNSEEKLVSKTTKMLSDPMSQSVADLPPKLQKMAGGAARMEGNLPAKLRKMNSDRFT
T1 sequence (P48544 1-419): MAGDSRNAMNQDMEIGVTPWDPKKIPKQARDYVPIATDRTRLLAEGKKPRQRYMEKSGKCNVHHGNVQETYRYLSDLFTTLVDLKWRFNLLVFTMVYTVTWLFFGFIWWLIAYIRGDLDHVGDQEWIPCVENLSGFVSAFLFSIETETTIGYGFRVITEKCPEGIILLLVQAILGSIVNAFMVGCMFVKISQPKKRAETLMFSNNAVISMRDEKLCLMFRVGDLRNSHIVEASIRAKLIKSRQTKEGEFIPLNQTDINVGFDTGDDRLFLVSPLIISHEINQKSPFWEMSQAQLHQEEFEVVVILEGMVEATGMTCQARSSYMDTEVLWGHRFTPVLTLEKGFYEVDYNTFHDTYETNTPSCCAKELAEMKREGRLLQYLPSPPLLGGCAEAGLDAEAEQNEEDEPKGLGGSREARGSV
Test: Atomic Absorption Screening (AAS) Rb efflux assay of hKir3.1/Kir3.4 block, carbachol/high K+ stimulated, 10-pt or 7-pt CR
Format: cell-based
Settings: 7-pt CR (0.037 to 27 μmol/L), AAS Rb efflux, CHO-K1 cells expressing hKir3.1/Kir3.4; mean of >3 replicates; read-out: IKACh IC50 7-pt CR, AAS
Procedure, shortened: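 CHO-K1 cells stably co-expressing human Kir3.1/Kir3.4 were Rb-loaded for 3 h at 37° C, preincubated with compound 5 min at RT, then stimulated 10 min with 10 μM carbachol plus 20 mM KCl (final). Supernatant Rb was measured by atomic absorption. Compounds ran at 0.003–67 μmol/L (10-pt) or 0.037–27 μmol/L (7-pt), threefold dilutions; IC50s are means of >4 or >3 replicates respectively.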

IC50	Compound
3.2 µM	Cc1cc(C(=O)N(C)[C@H](CN2CC[C@H](O)C2)C(C)C)ccc1F [Example 16.40, 4-Fluoro-N-[(1S)-1-{[(3S)-3-hydroxypyrrolidin-1-yl]methyl}-2-methylpropyl]-N,3-dimethylbenzamide]
19 µM	CC(C)[C@@H](CN1CC[C@H](O)C1)N(C)C(=O)c1ccc(F)cc1C(F)(F)F [Example 16.46, 4-Fluoro-N—((S)-1-((S)-3-hydroxypyrrolidin-1-yl)-3-methylbutan-2-yl)-N-methyl-2-(trifluoromethyl)benzamide]

Compound	IC50
CC(C)[C@H](CN1CCCC1)N(C)C(=O)c1ccc(Br)cc1 [Example 16.57, (R)-4-Bromo-N-methyl-N-(3-methyl-1-(pyrrolidin-1-yl)butan-2-yl)benzamide]	11 µM

Same assay, conditions: 10-pt CR (0.003 to 67 μmol/L), AAS Rb efflux, CHO-K1 cells expressing hKir3.1/Kir3.4; mean of >4 replicates; read-out: IKACh IC50 10-pt CR, AAS

IC50	Compound
11 µM	CC[C@H](C)[C@@H](CN1CC(O)C1)N(C)C(=O)c1cc(C)ccc1OC [Example 29.8, N-((2S,3S)-1-(3-Hydroxyazetidin-1-yl)-3-methylpentan-2-yl)-2-methoxy-N,5-dimethylbenzamide]
1.1 µM	CN(C(=O)c1ccc(F)cc1Cl)C(CN1CC(O)C1)C1CCCC1 (single isomer, unassigned) [32.6, isomer 1]
3.6 µM	CC(C)[C@@H](CN1CC[C@@H](O)C1)N(C)C(=O)c1ccc(F)c(C(F)(F)F)c1 [Example 17.7, 4-Fluoro-N—((S)-1-((R)-3-hydroxypyrrolidin-1-yl)-3-methylbutan-2-yl)-N-methyl-3-(trifluoromethyl)benzamide]
11 µM	CN(C(=O)c1ccc(F)c(F)c1)[C@H](CN1CC(O)C1)C1CC1 [Example 9.9, (S)-N-(1-Cyclopropyl-2-(3-hydroxyazetidin-1-yl)ethyl)-3,4-difluoro-N-methylbenzamide]
2.8 µM	CC(C)[C@@H](CN1CC(C)(O)C1)N(C)C(=O)c1ccc(Br)cc1 [Example 9.6, (S)-4-Bromo-N-(1-(3-hydroxy-3-methylazetidin-1-yl)-3-methyl-butan-2-yl)-N-methylbenzamide]
4.3 µM	CCCC[C@@H](CN1CC(O)C1)N(C)C(=O)c1cc(F)ccc1F [Example 33.9, 2,5-Difluoro-N-[(2S)-1-(3-hydroxyazetidin-1-yl)hexan-2-yl]-N-methylbenzamide]
19 µM	COCC1CN(C[C@H](C(C)C)N(C)C(=O)c2ccc(F)c(F)c2)C1 [Example 28, (S)-3,4-Difluoro-N-(1-(3-(methoxymethyl)azetidin-1-yl)-3-methylbutan-2-yl)-N-methylbenzamide]
4.6 µM	CN(C(=O)c1ccc(F)c(C#N)c1)[C@@H](CN1CC(O)C1)C1CCC1 [Example 35.9, 3-Cyano-N-[(1R)-1-cyclobutyl-2-(3-hydroxyazetidin-1-yl)ethyl]-4-fluoro-N-methylbenzamide]
8 µM	CN(C(=O)c1cccc(C(F)F)c1)[C@@H](CN1CC(O)C1)C1CCC1 [Example 35.8, N-[(1R)-1-Cyclobutyl-2-(3-hydroxyazetidin-1-yl)ethyl]-3-(difluoromethyl)-N-methylbenzamide]
0.84 µM	CCC[C@@H](CN1CC(O)C1)N(C)C(=O)c1ccc(F)c(C)c1 [Example 8.11, (S)-4-Fluoro-N-(1-(3-hydroxyazetidin-1-yl)pentan-2-yl)-N,3-di-methylbenzamide]
5 µM	CC(C)[C@@H](CN1CC(F)C1)N(C)C(=O)c1ccc(Br)cc1 [Example 1.7, (S)-4-Bromo-N-(1-(3-fluoroazetidin-1-yl)-3-methylbutan-2-yl)-N-methylbenzamide]
0.23 µM	CN(C(=O)c1ccc(C(F)(F)F)cc1)[C@H](CN1CC(O)C1)C1CCC1 [Example 39.8, (S)—N-(1-Cyclobutyl-2-(3-hydroxyazetidin-1-yl)ethyl)-N-methyl-4-(trifluoromethyl)benzamide]
7.5 µM	CN(C(=O)c1ccc(C#N)cc1)C(CN1CC(O)C1)C1CCCC1 (single isomer, unassigned) [32.5, isomer 2]

Compound	IC50
CC(C)[C@H](CN1CCCC1)N(C)C(=O)c1ccc(Br)cc1 [Example 16.57, (R)-4-Bromo-N-methyl-N-(3-methyl-1-(pyrrolidin-1-yl)butan-2-yl)benzamide]	8.8 µM
CN(C(=O)c1ccccc1)[C@H](CN1CC(O)C1)C1CCCCC1 [Example 36.8, N-[(1S)-1-Cyclohexyl-2-(3-hydroxyazetidin-1-yl)ethyl]-N-methylbenzamide]	1.1 µM
CCC[C@@H](CN1CC[C@H](O)C1)N(C)C(=O)c1ccc(Cl)cc1 [Example 46.2, 4-Chloro-N—((S)-1-((S)-3-hydroxypyrrolidin-1-yl)pentan-2-yl)-N-methylbenzamide]	5.5 µM
CN(C(=O)c1ccc(Cl)cc1)C(CN1CC(O)C1)C1CCCC1 (single isomer, unassigned) [32.3, isomer 2]	0.3 µM

Same assay, conditions: printed as IC50 >67 μM in the 10-pt CR assay or IC50 >27 μM in the 7-pt CR assay; assay format per compound not stated; read-out: IC50

IC50	Compound
> 27 µM	CC(C)[C@@H](CN1CCCCC1)N(C)C(=O)c1cccc(C#N)c1 [3-Cyano-N-methyl-N-[(1S)-2-methyl-1-(piperidin-1-ylmethyl)propyl]benzamide]
> 27 µM	CC(C)[C@@H](CN1CC(F)(CO)C1)N(C)C(=O)c1ccc(F)c(F)c1 [(S)-3,4-Difluoro-N-(1-(3-fluoro-3-(hydroxymethyl)azetidin-1-yl)-3-methylbutan-2-yl)-N-methylbenzamide]
> 27 µM	CC(C)[C@@H](CN1CC(C)(O)C1)N(C)C(=O)c1ccc(F)cc1 [(S)-4-Fluoro-N-(1-(3-hydroxy-3-methylazetidin-1-yl)-3-methylbutan-2-yl)-N-methylbenzamide]
> 27 µM	Cc1cc(C(=O)N(C)[C@H](CN2C[C@@H](O)[C@H](O)C2)C(C)C)ccc1F [N-((S)-1-((3R,4R)-3,4-Dihydroxypyrrolidin-1-yl)-3-methylbutan-2-yl)-4-fluoro-N,3-dimethylbenzamide]
